The values below come from patent publication US12202818B2, “Compounds and methods for CD73 modulation and indications therefor” (Opna Bio SA, priority 2020, dated 2025).

Experiment [1] concerns the target T1, Human CD73 (amino acid residues 27-549) (Homo sapiens, UniProt P21589).
T1 construct: Human CD73 (amino acid residues 27-549); His tag (N); made in house; host or cells: E. coli
T1 sequence (P21589 27-549): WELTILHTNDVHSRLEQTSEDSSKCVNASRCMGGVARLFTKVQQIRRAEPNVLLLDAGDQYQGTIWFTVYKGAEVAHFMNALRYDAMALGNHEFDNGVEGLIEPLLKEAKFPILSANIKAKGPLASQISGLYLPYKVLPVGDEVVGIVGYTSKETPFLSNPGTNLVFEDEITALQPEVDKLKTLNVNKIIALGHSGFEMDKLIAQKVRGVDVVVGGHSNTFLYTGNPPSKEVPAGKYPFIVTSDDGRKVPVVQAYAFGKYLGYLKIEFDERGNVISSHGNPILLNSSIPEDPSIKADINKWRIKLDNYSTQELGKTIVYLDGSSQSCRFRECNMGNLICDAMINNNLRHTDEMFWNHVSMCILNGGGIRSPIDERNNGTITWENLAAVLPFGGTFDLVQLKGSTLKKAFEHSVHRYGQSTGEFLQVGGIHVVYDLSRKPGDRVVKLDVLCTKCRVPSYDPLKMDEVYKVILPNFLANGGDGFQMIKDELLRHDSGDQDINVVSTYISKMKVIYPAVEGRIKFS
As to the kind of experiment: CD73 enzymatic assay (luciferase-based indirect assay, CellTiter-Glo). The format is biochemical. To be noted: 0.4 nM CD73, 150 μM AMP, 1 hour at room temperature. A digest of the protocol: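 Luciferase-coupled readout: AMP left after CD73 turnover suppresses CellTiter-Glo signal (1 μM ATP final, 30 min RT). Reaction beforehand: 150 μM AMP, 0.4 nM E. coli-made His-tagged CD73 residues 27-549, test compound, HEPES pH 7.4 with Tween-20, 1 h RT. % inhibition fitted nonlinearly for IC50.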
In general terms: ATP-based viability assays read luminescence as a measure of living cells.

In another experiment the target is T2, human CD73 (Homo sapiens, UniProt P21589).
T2 construct: expressed in transfected cells
T2 sequence (P21589 27-549): T1 sequence (P21589 27-549)
As to the kind of experiment: Inhibitor activity against CD73 in cell based assay (CD73 expressing CHO-K1 cells). To be noted: CHO-K1 cells expressing human CD73, 150 μM AMP, 4 hours of incubation; read-out: CHO-K1 CELL_VARIANT: CD73 IC50. The gist of the method: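 AMP (150 μM) was added alongside 8 titrated compound doses (maximum 10 μM, 1:3 steps) to CHO-K1 cells stably expressing human CD73. After 4 h, supernatant AMP was measured indirectly with CellTiter-Glo 2.0 plus 1 μM ATP (30 min, RT). % inhibition versus high and low controls was fitted nonlinearly for IC50.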

A word on the IC50: it is the concentration at which inhibition is half-maximal. Regarding `CCCn1nc(C)c(-c2cc(F)nc(O[C@@H]3CCN(c4cn[nH]c(=O)c4Cl)C3)c2)c1C` [P-0165, (R)-4-chloro-5-(3-((4-(3,5-dimethyl-1-propyl-1H-pyrazol-4-yl)-6-fluoropyridin-2-yl)oxy)pyrrolidin-1-yl)pyridazin-3(2H)-one], the IC50 (in experiment [1]; on human CD73) was 0.001 to 10 µM in each case.
Turning to `Cc1nn(CCC(F)(F)F)c(C)c1-c1cc(F)nc(O[C@@H]2CCN(c3cn[nH]c(=O)c3Cl)C2)c1` [P-0166, (R)-4-chloro-5-(3-((4-(3,5-dimethyl-1-(3,3,3-trifluoropropyl)-1H-pyrazol-4-yl)-6-fluoropyridin-2-yl)oxy)pyrrolidin-1-yl)pyridazin-3(2H)-one], the IC50 (in experiment [1]; at human CD73) was 0.001 to 10 µM each time.
Regarding `Cc1nn(CC(F)(F)F)c(C)c1-c1cc(F)nc(O[C@@H]2CCN(c3cn[nH]c(=O)c3Cl)C2)c1` [P-0167, (R)-4-chloro-5-(3-((4-(3,5-dimethyl-1-(2,2,2-trifluoroethyl)-1H-pyrazol-4-yl)-6-fluoropyridin-2-yl)oxy)pyrrolidin-1-yl)pyridazin-3(2H)-one], the IC50 (in experiment [1]; on human CD73) was 0.001 to 10 µM in each case.
As to `Cc1nn(C)c(C)c1-c1cncc(O[C@@H]2CCN(c3cn[nH]c(=O)c3Cl)C2)c1` [P-0168, (R)-4-chloro-5-(3-((5-(1,3,5-trimethyl-1H-pyrazol-4-yl)pyridin-3-yl)oxy)pyrrolidin-1-yl)pyridazin-3(2H)-one], the IC50 (in experiment [1]; on human CD73) was 0.001 to 10 µM each time.
For the compound `Cc1nn(CC(F)F)c(C)c1-c1cc(F)nc(O[C@@H]2CCN(c3cn[nH]c(=O)c3Cl)C2)c1` [P-0169, (R)-4-chloro-5-(3-((4-(1-(2,2-difluoroethyl)-3,5-dimethyl-1H-pyrazol-4-yl)-6-fluoropyridin-2-yl)oxy)pyrrolidin-1-yl)pyridazin-3(2H)-one], the IC50 (in experiment [1]; at human CD73) was 0.001 to 10 µM throughout.
In the case of `Cc1nn(C(F)F)c(C)c1-c1ccnc(O[C@@H]2CCN(c3cn[nH]c(=O)c3Cl)C2)c1` [P-0170, (R)-4-chloro-5-(3-((4-(1-(difluoromethyl)-3,5-dimethyl-1H-pyrazol-4-yl)pyridin-2-yl)oxy)pyrrolidin-1-yl)pyridazin-3(2H)-one], the IC50 (in experiment [1]; on human CD73) was 0.001 to 10 µM each time.
Regarding `Cc1nn(C)c(C)c1-c1cc(O[C@@H]2CCN(c3cn[nH]c(=O)c3Cl)C2)ncc1F` [P-0171, (R)-4-chloro-5-(3-((5-fluoro-4-(1,3,5-trimethyl-1H-pyrazol-4-yl)pyridin-2-yl)oxy)pyrrolidin-1-yl)pyridazin-3(2H)-one], the IC50 (in experiment [1]; on human CD73) was 0.001 to 10 µM each time.
Consider `Cc1nnn(C)c1-c1cc(F)nc(O[C@@H]2CCN(c3cn[nH]c(=O)c3Cl)C2)c1` [P-0172, (R)-4-chloro-5-(3-((4-(1,4-dimethyl-1H-1,2,3-triazol-5-yl)-6-fluoropyridin-2-yl)oxy)pyrrolidin-1-yl)pyridazin-3(2H)-one], for which the IC50 (in experiment [1]; on human CD73) was 0.001 to 10 µM each time.
On to `Cn1cncc1-c1cc(F)nc(O[C@@H]2CCN(c3cn[nH]c(=O)c3Cl)C2)c1` [P-0173, (R)-4-chloro-5-(3-((6-fluoro-4-(1-methyl-1H-imidazol-5-yl)pyridin-2-yl)oxy)pyrrolidin-1-yl)pyridazin-3(2H)-one], for which the IC50 (in experiment [1]; on human CD73) was 0.001 to 10 µM in each case.
In the case of `Cc1nc(C)c(-c2cc(F)nc(O[C@@H]3CCN(c4cn[nH]c(=O)c4Cl)C3)c2)s1` [P-0174, (R)-4-chloro-5-(3-((4-(2,4-dimethylthiazol-5-yl)-6-fluoropyridin-2-yl)oxy)pyrrolidin-1-yl)pyridazin-3(2H)-one], the IC50 (in experiment [1]; at human CD73) was 0.001 to 10 µM each time.
In the case of `Cc1cnn(C)c1-c1cc(F)nc(O[C@@H]2CCN(c3cn[nH]c(=O)c3Cl)C2)c1` [P-0175, (R)-4-chloro-5-(3-((4-(1,4-dimethyl-1H-pyrazol-5-yl)-6-fluoropyridin-2-yl)oxy)pyrrolidin-1-yl)pyridazin-3(2H)-one], the IC50 (in experiment [1]; on human CD73) was 0.001 to 10 µM in each case.
For `Cc1noc(C)c1-c1ccnc(O[C@@H]2CCN(c3cnn(CCO)c(=O)c3Cl)C2)c1` [P-0176, (R)-4-chloro-5-(3-((4-(3,5-dimethylisoxazol-4-yl)pyridin-2-yl)oxy)pyrrolidin-1-yl)-2-(2-hydroxyethyl)pyridazin-3(2H)-one], the IC50 (in experiment [1]; at human CD73) was 0.001 to 10 µM throughout.
Regarding `Cc1noc(C)c1-c1ccnc(O[C@H]2CN(c3cnn(CCO)c(=O)c3Cl)C[C@@H]2F)c1` [P-0177, 4-chloro-5-((3S,4S)-3-((4-(3,5-dimethylisoxazol-4-yl)pyridin-2-yl)oxy)-4-fluoropyrrolidin-1-yl)-2-(2-hydroxyethyl)pyridazin-3(2H)-one], the IC50 (in experiment [1]; on human CD73) was 0.001 to 10 µM in each case.
Regarding `Cc1noc(C)c1-c1cc(O[C@@H]2CCN(c3cnn(CCO)c(=O)c3Cl)C2)ncn1` [P-0178, (R)-4-chloro-5-(3-((6-(3,5-dimethylisoxazol-4-yl)pyrimidin-4-yl)oxy)pyrrolidin-1-yl)-2-(2-hydroxyethyl)pyridazin-3(2H)-one], the IC50 (in experiment [1]; at human CD73) was 0.001 to 10 µM in each case.
`Cc1noc(C)c1-c1ccnc(O[C@H]2CN(c3cn[nH]c(=O)c3Cl)C[C@@H]2F)c1` [P-0180, 4-chloro-5-((3S,4S)-3-((4-(3,5-dimethylisoxazol-4-yl)pyridin-2-yl)oxy)-4-fluoropyrrolidin-1-yl)pyridazin-3(2H)-one]: the IC50 (in experiment [1]; on human CD73) was 0.001 to 10 µM in each case.
With `Cc1nn(C)c(C)c1-c1cc(O[C@@H]2CCN(c3cn[nH]c(=O)c3Cl)C2)ncn1` [P-0181, (R)-4-chloro-5-(3-((6-(1,3,5-trimethyl-1H-pyrazol-4-yl)pyrimidin-4-yl)oxy)pyrrolidm-1-yl)pyridazin-3(2H)-one], the IC50 (in experiment [1]; on human CD73) was 0.001 to 10 µM each time.
As to `Cc1noc(C)c1-c1cc(O[C@@H]2CCN(c3cn[nH]c(=O)c3Cl)C2)ncn1` [P-0182, (R)-4-chloro-5-(3-((6-(3,5-dimethylisoxazol-4-yl)pyrimidin-4-yl)oxy)pyrrolidin-1-yl)pyridazin-3(2H)-one], the IC50 (in experiment [1]; on human CD73) was 0.001 to 10 µM in each case.
On to `Cc1nn(CC2CCC2)c(C)c1-c1cc(F)nc(O[C@@H]2CCN(c3cn[nH]c(=O)c3Cl)C2)c1` [P-0183, (R)-4-chloro-5-(3-((4-(1-(cyclobutylmethyl)-3,5-dimethyl-1H-pyrazol-4-yl)-6-fluoropyridin-2-yl)oxy)pyrrolidin-1-yl)pyridazin-3(2H)-one], for which the IC50 (in experiment [1]; on human CD73) was 0.001 to 10 µM each time.
For `Cc1nn(CC2(C)COC2)c(C)c1-c1cc(F)nc(O[C@@H]2CCN(c3cn[nH]c(=O)c3Cl)C2)c1` [P-0184, (R)-4-chloro-5-(3-((4-(3,5-dimethyl-1-((3-methyloxetan-3-yl)methyl)-1H-pyrazol-4-yl)-6-fluoropyridin-2-yl)oxy)pyrrolidin-1-yl)pyridazin-3(2H)-one], the IC50 (in experiment [1]; at human CD73) was 0.001 to 10 µM in each case.
For `Cc1nn(CC(C)(CO)CCl)c(C)c1-c1cc(F)nc(O[C@@H]2CCN(c3cn[nH]c(=O)c3Cl)C2)c1` (stereo partly drawn) [P-0185, 4-chloro-5-((3R)-3-((4-(1-(3-chloro-2-(hydroxymethyl)-2-methylpropyl)-3,5-dimethyl-1H-pyrazol-4-yl)-6-fluoropyridin-2-yl)oxy)pyrrolidin-1-yl)pyridazin-3(2H)-one], the IC50 (in experiment [1]; on human CD73) was 0.001 to 10 µM throughout.
Regarding `Cc1nn(CC(C)(C)O)c(C)c1-c1cc(F)nc(O[C@@H]2CCN(c3cn[nH]c(=O)c3Cl)C2)c1` [P-0186, (R)-4-chloro-5-(3-((6-fluoro-4-(1-(2-hydroxy-2-methylpropyl)-3,5-dimethyl-1H-pyrazol-4-yl)pyridin-2-yl)oxy)pyrrolidin-1-yl)pyridazin-3(2H)-one], the IC50 (in experiment [1]; on human CD73) was 0.001 to 10 µM in each case.
On to `Cc1nn(CC2CC(F)(F)C2)c(C)c1-c1cc(F)nc(O[C@@H]2CCN(c3cn[nH]c(=O)c3Cl)C2)c1` [P-0187, (R)-4-chloro-5-(3-((4-(1-((3,3-difluorocyclobutyl)methyl)-3,5-dimethyl-1H-pyrazol-4-yl)-6-fluoropyridin-2-yl)oxy)pyrrolidin-1-yl)pyridazin-3(2H)-one], for which the IC50 (in experiment [1]; at human CD73) was 0.001 to 10 µM each time.
As to `Cc1noc(C)c1-c1cc(F)nc(O[C@H]2CN(c3cnn(CCO)c(=O)c3Cl)C[C@@H]2F)c1` [P-0188, 4-chloro-5-((3S,4S)-3-((4-(3,5-dimethylisoxazol-4-yl)-6-fluoropyridin-2-yl)oxy)-4-fluoropyrrolidin-1-yl)-2-(2-hydroxyethyl)pyridazin-3(2H)-one], the IC50 (in experiment [1]; on human CD73) was 0.001 to 10 µM throughout.
